Patent US20130065922A1, “NOVEL AMIDES AS FUNGICIDES” (priority 2010, published 2013)
Like-named read-outs stand apart in the source and are kept apart here.

Columns and labels:
[1] = test system: Plasmopara viticola; assay: whole plant or invertebrate; assay type: in vivo; conditions: foliar, read-out: inhibit fungal infestation
[2] = test system: Pythium ultimum; assay: Pythium ultimum/Liquid Culture (Seedling Damping Off); assay type: cell-based; conditions: Globisporangium ultimum, read-out: inhibit fungal infestation
[3] = test system: Blumeria graminis f. Sp. tritici (Erysiphe graminis f. Sp. tritici); assay: Blumeria graminis f. Sp. tritici (Erysiphe graminis f. Sp. tritici)/Wheat/Leaf Disc Preventative (Powdery Mildew on Wheat); assay type: in vivo; conditions: foliar, read-out: inhibit fungal infestation
[4] = test system: Phytophthora infestans; assay: whole plant or invertebrate; assay type: in vivo; conditions: in Solanum lycopersicum, foliar, read-out: inhibit fungal infestation
[5] = 200 ppm, liquid culture (PDB), 24° C., growth inhibition photometrically 2-3 days after application
[6] = 200 ppm, wheat leaf segments cv. Kanzler, preventative, 6-8 days after application, untreated control infected to over 80%

Molecule `C#CC(C)(C)NC(=O)C(CC)Oc1cc(Cl)c2ncc(SC)cc2c1` (stereo not drawn) has a melting point of 140 to 142 °C.

With `CC#CC(C)(C)NC(=O)C(OC)Oc1cc(Cl)c2ncc(SC)cc2c1` (stereo not drawn) [Compound 48, 2-(8-Chloro-3-methylsulfanyl-quinolin-6-yloxy)-N-(1,1-dimethyl-but-2-ynyl)-2-methoxy-acetamide] the inhibition at 200 ppm [1] was ≥ 80% and the melting point was 90 to 92 °C.

For `CC#CC(C)(C)NC(=O)C(Oc1cc(C)c2ncc(OCC)cc2c1)SC` (stereo not drawn) [Compound 24, N-(1,1-Dimethyl-but-2-ynyl)-2-(3-ethoxy-8-methyl-quinolin-6-yloxy)-2-methylsulfanyl-acetamide], the inhibition at 200 ppm [1] was ≥ 80%, the inhibition at 200 ppm [2] was ≥ 80% and the melting point was 137 to 139 °C. For the same molecule, the inhibition at 200 ppm [3] was ≥ 80%.

Molecule `COC(Oc1cc(C)c2ncc(SC)cc2c1)C(=O)NC1CCC1` (stereo not drawn) has a melting point of 132 to 134 °C.

With `CCC(Oc1cc(C)c2ncc(SC)cc2c1)C(=O)NC1CCC1` (stereo not drawn) the melting point was 136 to 138 °C.

For `CCC(Oc1cc(Cl)c2ncc(SC)cc2c1)C(=O)NC(C)(C)/C=N/OC` (stereo not drawn) [Compound 39, 2-(8-Chloro-3-methylsulfanyl-quinolin-6-yloxy)-N-(2-methoxyimino-1,1-dimethyl-ethyl)-butyramide], the inhibition at 200 ppm [1] was ≥ 80% and the melting point was 119 to 121 °C.

With `COc1cnc2ccc(OC(SC)C(=O)NC(C)(C)C)cc2c1` (stereo not drawn) [Compound 2, N-tert-Butyl-2-(3-methoxy-quinolin-6-yloxy)-2-methylsulfanyl-acetamide] the inhibition at 200 ppm [2, 5] was ≥ 80%, the melting point was 110 to 115 °C and the inhibition at 200 ppm [3, 6] was ≥ 80%. For the same molecule, the inhibition at 200 ppm [4] was ≥ 80%.

`COCC(C)(C#N)NC(=O)C(OC)Oc1cc(Cl)c2ncc(SC)cc2c1` (stereo not drawn) gave a melting point of 90 to 93 °C.

With `COC(Oc1ccc2ncc(SC)cc2c1)C(=O)NC1CCC1` (stereo not drawn) [Compound 61, N-Cyclobutyl-2-methoxy-2-(3-methylsulfanyl-quinolin-6-yloxy)-acetamide] the melting point was 80 to 82 °C and the inhibition at 200 ppm [3, 6] was ≥ 80%.

For `CO/N=C/C(C)(C)NC(=O)C(OC)Oc1cc(Cl)c2ncc(SC)cc2c1` (stereo not drawn) [Compound 47, 2-(8-Chloro-3-methylsulfanyl-quinolin-6-yloxy)-2-methoxy-N-(2-methoxyimino-1,1-dimethyl-ethyl)-acetamide], the inhibition at 200 ppm [1] was ≥ 80%, the melting point was 121 to 123 °C and the inhibition at 200 ppm [3, 6] was ≥ 80%.

Molecule `COC(Oc1cc(Cl)c2ncc(SC)cc2c1)C(=O)NC(C)(C)C` (stereo not drawn) has a melting point of 125 to 127 °C.

With `COCC(C)(C#N)NC(=O)C(Oc1ccc2ncc(OC)cc2c1)SC` (stereo not drawn) [Compound 3, N-(1-Cyano-2-methoxy-1-methyl-ethyl)-2-(3-methoxy-quinolin-6-yloxy)-2-methylsulfanyl-acetamide] the inhibition at 200 ppm [2, 5] was ≥ 80%, the melting point was 75 to 77 °C and the inhibition at 200 ppm [3, 6] was ≥ 80%.

With `CCC(Oc1ccc2ncc(OC)cc2c1)C(=O)NC(C)(C)/C=N/OC` (stereo not drawn) [Compound 6, N-(2-Methoxyimino-1,1-dimethyl-ethyl)-2-(3-methoxy-quinolin-6-yloxy)-butyramide] the inhibition at 200 ppm [2, 5] was ≥ 80%, the melting point was 87 to 89 °C and the inhibition at 200 ppm [3, 6] was ≥ 80%.

With `COC(Oc1ccc2ncc(SC)cc2c1)C(=O)NC(C)(C)C` (stereo not drawn) [Compound 60, N-tert-Butyl-2-methoxy-2-(3-methylsulfanyl-quinolin-6-yloxy)-acetamide] the melting point was 119 to 121 °C and the inhibition at 200 ppm [3, 6] was ≥ 80%.

Work on `COC(Oc1cc(C)c2ncc(SC)cc2c1)C(=O)NC(C)(C)C` (stereo not drawn) yielded a melting point of 146 to 148 °C.

Work on `COC(Oc1ccc2ncc(SC)cc2c1)C(=O)NC1(C)CCC1` (stereo not drawn) yielded a melting point of 100 to 102 °C.

`CCC(Oc1cc(Cl)c2ncc(SC)cc2c1)C(=O)NC(C)C` (stereo not drawn) showed a melting point of 143 to 145 °C.

In the case of `CO/N=C/C(C)(C)NC(=O)C(OC)Oc1cc(C)c2ncc(SC)cc2c1` (stereo not drawn) [Compound 43, 2-Methoxy-N-(2-methoxyimino-1,1-dimethyl-ethyl)-2-(8-methyl-3-methylsulfanyl-quinolin-6-yloxy)-acetamide], the inhibition at 200 ppm [1] was ≥ 80% and the melting point was 109 to 111 °C.

`C#CC(C)(C)NC(=O)C(OC)Oc1cc(C)c2ncc(SC)cc2c1` (stereo not drawn) gave a melting point of 124 to 127 °C.

For `CCOCC(C)(C)NC(=O)C(Oc1ccc2ncc(SC)cc2c1)SC` (stereo not drawn) [Compound 66, N-(2-Ethoxy-1,1-dimethyl-ethyl)-2-methylsulfanyl-2-(3-methylsulfanyl-quinolin-6-yloxy)-acetamide], the inhibition at 200 ppm [3, 6] was ≥ 80%.

In the case of `CC#CC(C)(C)NC(=O)C(OC)Oc1cc(C)c2ncc(SC)cc2c1` (stereo not drawn) [Compound 46, N-(1,1-Dimethyl-but-2-ynyl)-2-methoxy-2-(8-methyl-3-methylsulfanyl-quinolin-6-yloxy)-acetamide], the inhibition at 200 ppm [1] was ≥ 80% and the melting point was 102 to 104 °C.

Molecule `CCC(Oc1cc(Cl)c2ncc(SC)cc2c1)C(=O)NC(C)(C)C` (stereo not drawn) has a melting point of 134 to 136 °C.

Molecule `C#CC(C)(C)NC(=O)C(OC)Oc1ccc2ncc(SC)cc2c1` (stereo not drawn) has a melting point of 123 to 125 °C.

In the case of `CCC(Oc1ccc2ncc(OC)cc2c1)C(=O)NC(C)(C)C` (stereo not drawn) [Compound 12, N-tert-Butyl-2-(3-methoxy-quinolin-6-yloxy)-butyramide], the inhibition at 200 ppm [2, 5] was ≥ 80%, the melting point was 131 to 133 °C and the inhibition at 200 ppm [4] was ≥ 80%.

Work on `CCC(Oc1cc(C)c2ncc(SC)cc2c1)C(=O)NC(C)(C)C` (stereo not drawn) yielded a melting point of 119 to 121 °C.

In the case of `COC(Oc1cc(Cl)c2ncc(SC)cc2c1)C(=O)NC1(C)CCC1` (stereo not drawn), the melting point was 113 to 115 °C.

For `CC#CC(C)(C)NC(=O)C(OC)Oc1ccc2ncc(SC)cc2c1` (stereo not drawn) [Compound 57, N-(1,1-Dimethyl-but-2-ynyl)-2-methoxy-2-(3-methylsulfanyl-quinolin-6-yloxy)-acetamide], the melting point was 63 to 65 °C and the inhibition at 200 ppm [3] was ≥ 80%.

For `CO/N=C/C(C)(C)NC(=O)C(OC)Oc1ccc2ncc(SC)cc2c1` (stereo not drawn) [Compound 56, 2-Methoxy-N-(2-methoxyimino-1,1-dimethyl-ethyl)-2-(3-methylsulfanyl-quinolin-6-yloxy)-acetamide], the inhibition at 200 ppm [2, 5] was ≥ 80%, the melting point was 98 to 100 °C and the inhibition at 200 ppm [4] was ≥ 80%.

For `CO/N=C/C(C)(C)NC(=O)C(Oc1cc(Cl)c2ncc(SC)cc2c1)SC` (stereo not drawn) [Compound 31, 2-(8-Chloro-3-methylsulfanyl-quinolin-6-yloxy)-N-(2-methoxyimino-1,1-dimethyl-ethyl)-2-methylsulfanyl-acetamide], the inhibition at 200 ppm [1] was ≥ 80%, the inhibition at 200 ppm [2, 5] was ≥ 80% and the melting point was 168 to 170 °C.

For `CO/N=C/C(C)(C)NC(=O)C(Oc1ccc2ncc(OC)cc2c1)SC` (stereo not drawn) [Compound 1, N-(2-Methoxyimino-1,1-dimethyl-ethyl)-2-(3-methoxy-quinolin-6-yloxy)-2-methylsulfanyl-acetamide], the inhibition at 200 ppm [2, 5] was ≥ 80%, the melting point was 122 to 124 °C and the inhibition at 200 ppm [3, 6] was ≥ 80%. For the same molecule, the inhibition at 200 ppm [4] was ≥ 80%.

With `C#CC(C)(C)NC(=O)C(CC)Oc1ccc2ncc(OC)cc2c1` (stereo not drawn) [Compound 7, N-(1,1-Dimethyl-prop-2-ynyl)-2-(3-methoxy-quinolin-6-yloxy)-butyramide] the inhibition at 200 ppm [2, 5] was ≥ 80%, the melting point was 109 to 112 °C and the inhibition at 200 ppm [3, 6] was ≥ 80%. The inhibition at 200 ppm [4] was ≥ 80%.

In the case of `CO/N=C/C(C)(C)NC(=O)C(OC)Oc1ccc2ncc(OC)cc2c1` (stereo not drawn) [Compound 8, 2-Methoxy-N-(2-methoxyimino-1,1-dimethyl-ethyl)-2-(3-methoxy-quinolin-6-yloxy)-acetamide], the inhibition at 200 ppm [2, 5] was ≥ 80%, the melting point was 100 to 106 °C and the inhibition at 200 ppm [3, 6] was ≥ 80%. The inhibition at 200 ppm [4] was ≥ 80%.

With `COCC#CC(C)(C)NC(=O)C(OC)Oc1ccc2ncc(SC)cc2c1` (stereo not drawn) [Compound 58, 2-Methoxy-N-(4-methoxy-1,1-dimethyl-but-2-ynyl)-2-(3-methylsulfanyl-quinolin-6-yloxy)-acetamide] the melting point was 74 to 76 °C and the inhibition at 200 ppm [3] was ≥ 80%.

Work on `CCC(Oc1ccc2ncc(OC)cc2c1)C(=O)NC(C)(C#N)COC` (stereo not drawn) yielded a melting point of 122 to 124 °C.

For `CCC(Oc1cc(C)c2ncc(SC)cc2c1)C(=O)NC(C)C` (stereo not drawn), the melting point was 132 to 134 °C.

For `COCC#CC(C)(C)NC(=O)C(OC)Oc1cc(Cl)c2ncc(SC)cc2c1` (stereo not drawn) [Compound 49, 2-(8-Chloro-3-methylsulfanyl-quinolin-6-yloxy)-2-methoxy-N-(4-methoxy-1,1-dimethyl-but-2-ynyl)-acetamide], the inhibition at 200 ppm [1] was ≥ 80% and the melting point was 85 to 87 °C.

For `CSc1cnc2ccc(OC(SC)C(=O)NC(C)(C)CCF)cc2c1` (stereo not drawn) [Compound 67, N-(3-Fluoro-1,1-dimethyl-propyl)-2-methylsulfanyl-2-(3-methylsulfanyl-quinolin-6-yloxy)-acetamide], the inhibition at 200 ppm [1] was ≥ 80% and the inhibition at 200 ppm [3, 6] was ≥ 80%.

For `CCOc1cnc2c(C)cc(OC(SC)C(=O)NC(C)(C)C)cc2c1` (stereo not drawn) [Compound 20, N-tert-Butyl-2-(3-ethoxy-8-methyl-quinolin-6-yloxy)-2-methylsulfanyl-acetamide], the inhibition at 200 ppm [2, 5] was ≥ 80% and the melting point was 181 to 183 °C.

For `C#CC(C)(C)NC(=O)C(OC)Oc1ccc2ncc(OC)cc2c1` (stereo not drawn) [Compound 9, N-(1,1-Dimethyl-prop-2-ynyl)-2-methoxy-2-(3-methoxy-quinolin-6-yloxy)-acetamide], the melting point was 124 to 127 °C and the inhibition at 200 ppm [3, 6] was ≥ 80%.

In the case of `COC(Oc1cc(Cl)c2ncc(SC)cc2c1)C(=O)NC(C)C` (stereo not drawn) [Compound 52], the melting point was 115 to 118 °C and the inhibition at 200 ppm [3, 6] was ≥ 80%.

With `C#CC(C)(C)NC(=O)C(OC)Oc1cc(Cl)c2ncc(SC)cc2c1` (stereo not drawn) the melting point was 116 to 118 °C.

For `CCC(Oc1ccc2ncc(SC)cc2c1)C(=O)NC(C)C` (stereo not drawn) [Compound 28, N-Isopropyl-2-(3-methylsulfanyl-quinolin-6-yloxy)-butyramide], the inhibition at 200 ppm [2, 5] was ≥ 80% and the melting point was 112 to 115 °C.

With `COC(Oc1cc(Cl)c2ncc(SC)cc2c1)C(=O)NC1CCC1` (stereo not drawn) the melting point was 128 to 130 °C.
